Positions of bridges follow the written chain, without caps; N, C: chain ends. Non-standard residues stand in square brackets, D forms with d. Residues, ends and D or L forms follow the SMILES beside them. S5 = C=CCCC[C@](C)(N)C(=O)O; Nle = CCCC[C@H](N)C(=O)O
Legend:
Mcl-1 [1] = molecular target: T1, Mcl-1 (Homo sapiens, UniProt Q07820); assay: Competition of unlabeled peptides with a fluorescently labeled Bim variant; conditions: unlabeled peptide
Bcl-xL = Bcl-xL (Homo sapiens, UniProt Q07817); conditions: reported in the literature; cited from earlier work
[2] = system: Human multiple myeloma cell lines dependent upon Mcl-1
Method: (§1) A whole-cell BH3 profiling assay was used to test the specificity of our Mcl-1-binding peptides in several cell lines with differing dependencies on Bcl-2, Mcl-1, Bcl-xL, or Bfl-1. In this assay, permeabilized cells were treated with increasing doses of BH3 peptides, and mitochondrial outer membrane permeabilization (MOMP) was monitored using the dye JC-1 (see below). Mcl-1/Myc 2640 is an engineered murine leukemia cell line overexpressing murine Mcl-1 and Myc, and Bcl-2/Myc 2924 is a similarly engineered cell line overexpressing human Bcl-2.
(§2) Assay plates were produced by serial dilution of each peptide from 200 μM to 0.2 nM using 10-fold dilutions in DTEB (Derived from Trehalose Experimental Buffer: 135 mM trehalose, 50 mM KCl, 20 μM EDTA, 20 μM EGTA, 0.1% BSA, 5 mM succinate, 10 mM HEPES-KOH pH 7.5) containing 0.005% w/v digitonin, 10 mM 2-mercaptoethanol, 2 μM JC-1, and 20 mg mL-1 oligomycin. Triplicate wells for each peptide were made for each cell line by adding 15 μL of the peptide dilutions to each well of a black, untreated 384-well plate. Control wells containing no peptide or 20 μM FCCP (carbonyl cyanide-4(trifluoromethoxy) phenylhydrazone, a chemical uncoupler of oxidative phosphorylation) were included for zero and complete depolarization, respectively. Multiple plates were produced from the same stock and frozen at −80 ° C. for later use. Frozen plates were brought to RT prior to use, cells were suspended in DTEB at a density of 1.34×10^6 cells/mL, and 15 μL of cell suspension was added to each well of the dilution series to yield wells ranging from 0.1 nM to 100 μM peptide and 20000 cells/well. Fluorescence of JC-1 aggregates was measured at 590 nm with 545 nm excitation on a Tecan Safire2 at 5 min intervals for 3 h. The area under each signal-vs-time curve was calculated and normalized to the untreated and FCCP values to produce the percent depolarization. Curves were plotted as the log [peptide] vs percent depolarization, with sigmoidal dose—response curves fitted using Graphpad PRISM 6.

Bcl-2/Myc 2924 cells = system: Bcl-2/Myc 2924 cells
Method: as §1, §2

MDA-MB-231 cells = system: MDA-MB-231 cells
Method: as §1, §2

Mcl-1/Myc 2640 cells = system: Mcl-1/Myc 2640 cells
Method: as §1, §2

Bcl-w = molecular target: T2, Bcl-w (Homo sapiens, UniProt Q92843); conditions: reported in the literature; cited from earlier work
T2 sequence (Q92843 1-193): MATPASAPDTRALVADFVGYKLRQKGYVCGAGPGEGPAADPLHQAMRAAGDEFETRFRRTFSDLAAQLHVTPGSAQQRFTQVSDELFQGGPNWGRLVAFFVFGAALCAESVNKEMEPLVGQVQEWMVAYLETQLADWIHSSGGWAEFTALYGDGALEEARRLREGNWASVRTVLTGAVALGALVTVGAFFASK

Bfl-1 = conditions: reported in the literature; cited from earlier work
Bcl-2 = Bcl-2 (Homo sapiens, UniProt P10415); conditions: reported in the literature; cited from earlier work
[3] = molecular target: T3, interaction between Bak and Mcl-1 (Homo sapiens, UniProt Q07820); assay: Mcl-1 immunoprecipitation and Bak western analysis in OCI-AML3 cell lysate; format: biochemical
T3 construct: endogenous in cells; host or cells: OCI-AML3 cell lysate
Excerpt: The same blot was probed with the Bak (˜28 kD) antibody.

[4] = Circular dichroism analysis of alpha-helicity; format: physicochemical; conditions: Tris buffer pH 7.4
Excerpt: FIG. 4|Results of studies assessing the alpha-helicity of various internally cross-linked peptides. Circular dichroism analysis illustrating helicity of stapled peptides 3 (SEQ ID NO:9), 7 (SEQ ID NO:7), and 10 (SEQ ID NO:8) and the non-stapled peptide of the amino acid sequence […] (SEQ ID NO:54), dissolved in Tris buffer pH.7.4.

MEF cells = assay: Lactate dehydrogenase (LDH) release assay, non-specific cell lysis; format: cell-based
Excerpt: FIG. 5|Results of studies assessing non-specific cell-lysis by internally cross-linked peptides. Lactate dehydrogenase release assays (LDH) identified membrane-disruptive peptides 3 (SEQ ID NO:9) and 7 (SEQ ID NO:7); tested in MEF cells. Peptides 7, 10, 3, and 11-20 are SEQ ID NOs: 7, 8, 9, and 10-19 respectively.
Additional studies examined the non-specific cell lysis activity of peptide 3 (SEQ ID NO:9) (M1 SAHBd) and certain sequence variants of peptide 3 (SEQ ID NO:9) (M1 SAHBd).

Mcl-1 [5] = molecular target: T1, Mcl-1; assay: Receptor binding IC50 of M1 and stapled M1 peptides (Table 2); conditions: among M1 and its stapled variants
Excerpt: Peptides 1-10 are SEQ ID NOs: 46, 47, 9, 48, 49, 50, 7, 51, 52, and 8 respectively.

MDA-MB231 cells = assay: Cell viability by CellTiter-Glo (CTG) assay; format: cell-based, human; conditions: 24 hours
Excerpt: (§3) Data are mean and s.d. for experiments performed in at least duplicate. Vehicle is DMSO.

[6] = system: H929 multiple myeloma cells; assay: Cell viability by CellTiter-Glo (CTG) assay; format: cell-based; conditions: 24 hours
Excerpt: as §3

T1 sequence (Q07820 whole entry): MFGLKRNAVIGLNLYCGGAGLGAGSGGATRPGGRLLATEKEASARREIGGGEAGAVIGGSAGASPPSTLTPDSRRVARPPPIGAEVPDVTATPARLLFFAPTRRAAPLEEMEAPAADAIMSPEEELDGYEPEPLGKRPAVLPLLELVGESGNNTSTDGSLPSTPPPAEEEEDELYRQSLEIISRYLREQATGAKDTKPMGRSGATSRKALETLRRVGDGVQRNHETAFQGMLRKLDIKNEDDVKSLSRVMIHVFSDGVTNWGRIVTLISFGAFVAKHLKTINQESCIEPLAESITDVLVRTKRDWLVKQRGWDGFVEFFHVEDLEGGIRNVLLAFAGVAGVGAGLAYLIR
T3 sequence (Q07820 whole entry): as above
Bcl-2, sequence (P10415 whole entry, species assumed): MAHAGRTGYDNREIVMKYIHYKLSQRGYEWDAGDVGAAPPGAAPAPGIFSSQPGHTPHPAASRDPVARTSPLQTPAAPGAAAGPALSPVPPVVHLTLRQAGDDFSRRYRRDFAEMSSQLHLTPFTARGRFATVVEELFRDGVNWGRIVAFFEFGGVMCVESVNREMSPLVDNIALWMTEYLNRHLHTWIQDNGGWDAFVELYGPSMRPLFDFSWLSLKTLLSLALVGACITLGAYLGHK
Bcl-xL, sequence (Q07817 whole entry, species assumed): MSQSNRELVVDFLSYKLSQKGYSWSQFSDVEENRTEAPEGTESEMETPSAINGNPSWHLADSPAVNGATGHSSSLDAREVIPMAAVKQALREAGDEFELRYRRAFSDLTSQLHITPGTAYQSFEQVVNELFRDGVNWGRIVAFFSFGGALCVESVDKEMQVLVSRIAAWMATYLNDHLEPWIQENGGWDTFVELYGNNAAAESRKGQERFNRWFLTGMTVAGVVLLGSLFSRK

CC[C@H](C)[C@H](NC(=O)[C@H](CCCCN)NC(=O)[C@H](CCCNC(=N)N)NC(=O)[C@H](CC(C)C)NC(=O)[C@H](CCC(N)=O)NC(=O)[C@H](C)NC(=O)[C@H](C)NC(=O)[C@H](Cc1ccccc1)NC(=O)[C@H](CCC(=O)O)NC(=O)[C@@H]1CCCN1C(=O)[C@@H]1CCCN1C(=O)[C@H](CC(C)C)NC(=O)[C@H](CCC(=O)O)NC(=O)[C@H](C)NC(C)=O)C(=O)NCC(=O)N[C@@H](CC(=O)O)C(=O)N[C@@H](CCCCN)C(=O)N[C@H](C(=O)N[C@@H](Cc1ccc(O)cc1)C(=O)N[C@@H](CS)C(N)=O)C(C)C [NoxaA]
binding to Mcl-1 in competition assay (in words) (Mcl-1 [1]): very weak
no binding up to (Bcl-xL) (Bcl-xL): > 2500 nM
EC50 [2]: > 100 µM
EC50 (Bcl-2/Myc 2924 cells): > 100 µM
EC50 (MDA-MB-231 cells): > 100 µM
EC50 (Mcl-1/Myc 2640 cells): 20 µM
no binding up to (Bcl-w) (Bcl-w): > 2500 nM
no binding up to (Bfl-1) (Bfl-1): > 2500 nM
no binding up to (Bcl-2) (Bcl-2): > 2500 nM

CCCC[C@H](NC(=O)[C@H](Cc1c[nH]c2ccccc12)NC(=O)[C@@H](NC(C)=O)[C@@H](C)CC)C(=O)N[C@@]1(C)CCCC=CCCC[C@@](C)(C(=O)N[C@@H](CCCNC(=N)N)C(=O)N[C@@H](CC(C)C)C(=O)NCC(=O)N[C@@H](CC(=O)O)C(=O)N[C@@H](CCC(=O)O)C(=O)N[C@H](C(=O)N[C@@H](CC(N)=O)C(=O)N[C@@H](C)C(=O)N[C@@H](Cc2ccc(O)cc2)C(=O)N[C@@H](Cc2ccc(O)cc2)C(=O)N[C@@H](C)C(=O)N[C@@H](CCCNC(=N)N)C(=O)N[C@@H](CCCNC(=N)N)C(N)=O)[C@@H](C)CC)NC(=O)[C@H](CC(C)C)NC(=O)CNC(=O)[C@H](CCC(N)=O)NC1=O [peptide 3, IWNleXQGLXRLGDEINAYYARR] (Ac-IW[Nle][S5]QGL[S5]RLGDEINAYYARR-NH2; staple 4-8; N-terminus assumed)
disruption of Bak/Mcl-1 interaction (in words) [3]: interaction between Bak and Mcl-1 was disrupted
alpha-helical content (in words) [4]: highest alpha-helical content
LDH release, membrane disruption (in words) (MEF cells): membrane-disruptive
selectivity for Mcl-1 over Bcl-xL, Bcl-2, Bclw and Bfl 1 (in words) (Mcl-1 [5]): greatest selectivity for Mcl-1

CN(C)CC[C@H](CSc1ccccc1)Nc1ccc(S(=O)(=O)NC(=O)c2ccc(N3CCN(Cc4ccccc4-c4ccc(Cl)cc4)CC3)cc2)cc1[N+](=O)[O-] [ABT-737]
effect on cell viability (in words) (MDA-MB231 cells): clear dose-dependent reduction in cell viability
effect on cell viability (in words) [6]: not active

Reference: US11142554B2 (MASSACHUSETTS INSTITUTE OF TECHNOLOGY, priority 2015, dated 2021)
